Results on 15 compounds are retold here after patent publication US4902698A, “Benzenesulphonamidopyridyl compounds which are useful as thromboxane A 2” (Smith Kline & French Laboratories Limited, priority 1988, dated 1990).

The target in this test is T1, TXA2 receptors (Homo sapiens, UniProt P21731).
T1 construct: endogenous in cells; host or cells: human platelets
T1 sequence (P21731 1-343): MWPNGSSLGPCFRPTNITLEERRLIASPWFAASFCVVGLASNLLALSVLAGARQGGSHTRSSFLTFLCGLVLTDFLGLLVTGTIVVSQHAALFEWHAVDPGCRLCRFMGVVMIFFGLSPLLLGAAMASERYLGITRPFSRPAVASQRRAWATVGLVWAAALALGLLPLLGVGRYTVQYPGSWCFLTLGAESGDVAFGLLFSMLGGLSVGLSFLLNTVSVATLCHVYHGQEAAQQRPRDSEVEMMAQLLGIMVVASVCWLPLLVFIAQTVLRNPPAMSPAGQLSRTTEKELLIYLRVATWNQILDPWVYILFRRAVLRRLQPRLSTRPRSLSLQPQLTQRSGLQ
The test can be described thus: human platelet binding assay ([125I]PTA-OH as receptor ligand). Conditions: 50% inhibition of specific [^125 I]PTA-OH binding, human platelets. The procedure: As indicated above, compounds of the formula (I) have biological activity that is indicative of an ability to antagonise TXA2 receptors.
The platelet binding assay used was essentially the method described by Mais et al. J. Pharm. Exp. Ther., 1985, 235(3), 729-734 where [^125 I]PTA-OH was used as the receptor ligand.
The IC50 values represent the concentration which produces a 50% inhibition of specific [^125 I]PTA-OH binding.
The compounds of Examples 1 and 5 were tested in the human platelet binding assay.

Molecules are shown by their SMILES.

Compound `O=C(O)CCCc1ccc(NS(=O)(=O)c2ccccc2)cn1` [Example 1, 4-(5-Benzenesulphonamidopyrid-2-yl)butanoic acid] came in with an IC50 of 1300 nM.

Compound `O=C(O)CCCc1ccc(NS(=O)(=O)c2ccc(Cl)cc2)cn1` [Example 2, 4-[5-(4-Chlorobenzenesulphonamido)pyrid-2-yl]-butanoic acid] came in with an IC50 of 360 nM.

Regarding `Cc1cc(NS(=O)(=O)c2ccccc2)cnc1CCCC(=O)O` [Example 3, 4-(5-Benzenesulphonamido-3-methylpyrid-2-yl)butanoic acid], the IC50 amounted to 2600 nM.

`O=C(O)CCCc1ncccc1NS(=O)(=O)c1ccccc1` [Example 4, 4-(3-Benzenesulphonamidopyrid-2-yl)butanoic acid]: the IC50 was 102000 nM.

`O=C(O)CCCc1ccc(NS(=O)(=O)c2cccc(Cl)c2)cn1` [Example 5, 4-[5-(3-Chlorobenzenesulphonamido)pyrid-2-yl]butanoic acid]: the IC50 amounted to 1200 nM.

In turn, `O=C(O)CCCCc1ccc(NS(=O)(=O)c2ccc(Cl)cc2)cn1` [Example 6, 5-[5-(4-Chlorobenzenesulphonamido)pyrid-2-yl]pentanoic acid] came in with an IC50 of 1000 nM.

The compound `O=C(O)CCCCc1ccc(NS(=O)(=O)c2ccccc2)cn1` [Example 7, 5-[5-(Benzenesulphonamido)pyrid-2-yl]pentanoic acid] gave an IC50 of 4000 nM.

Compound `O=C(O)CCc1ccc(NS(=O)(=O)c2ccc(Cl)cc2)cn1` [Example 8, 3-[5-(4-Chlorobenzenesulphonamido)pyrid-2-yl]propionic acid] had an IC50 of 251000 nM.

With `O=C(O)CCCc1ccc(S(=O)(=O)Nc2ccc(Cl)cc2)cn1` [Example 9, 4-[5-(4-Chlorophenylsulphamoyl)pyrid-2-yl]-butanoic acid], the concentration for half-maximal inhibition (IC50) came to 21000 nM.

`O=C(O)CCCc1ccc(S(=O)(=O)Nc2ccccc2)cn1` [Example 10, 4-[5-(Phenylsulphamoyl)pyrid-2-yl)butanoic acid] yielded a 50% inhibitory concentration (IC50) of 28000 nM.

With `COc1ccc(S(=O)(=O)Nc2ccc(CCCC(=O)O)nc2)cc1` [Example 11, 4-[5-(4-Methoxybenzenesulphonamido)pyrid-2-yl]butanoic acid], the IC50 turned out to be 5200 nM.

Turning to `O=C(O)CCCc1ccc(NS(=O)(=O)c2cccc(C(F)(F)F)c2)cn1` [Example 12, 4-[5-(3-Trifluoromethylbenzenesulphonamido)-pyrid-2-yl]butanoic acid], the IC50 was found to be 16000 nM.

`O=C(O)CCCc1ccc(NS(=O)(=O)c2ccc(Br)cc2)cn1` [Example 13, 4-[5-(4-Bromobenzenesulphonamido)pyrid-2-yl]butanoic acid]: the IC50 came out at 200 nM.

`Cc1ccc(S(=O)(=O)Nc2ccc(CCCC(=O)O)nc2)cc1` [Example 14, 4-[5-(4-Methylbenzenesulphonamido)pyrid-2-yl]butanoic acid] displayed an IC50 of 600 nM.

Regarding `O=C(O)CCCc1ccc(NS(=O)(=O)c2ccc(Cl)c(Cl)c2)cn1` [Example 15, 4-[5-(3,4-Dichlorobenzenesulphonamido)pyrid-2-yl]butanoic acid], the IC50 was 2100 nM.

By IC50 is commonly meant the concentration needed to halve the response being measured.
